# Experimental data from patent US20090176817A1, “Method of Treatment of Diarrhea-Predominant Irritable Bowel Syndrome in a Subject” (priority 2005, published 2009).
# Marks after values point to notes of the source that are not given here.
# How the values were obtained:
# human 5-HT3 receptor = biological target: T1, human 5-HT3 receptor (Homo sapiens, UniProt P46098); experiment: 5-HT3 receptor binding
# T1 sequence (P46098 24-478): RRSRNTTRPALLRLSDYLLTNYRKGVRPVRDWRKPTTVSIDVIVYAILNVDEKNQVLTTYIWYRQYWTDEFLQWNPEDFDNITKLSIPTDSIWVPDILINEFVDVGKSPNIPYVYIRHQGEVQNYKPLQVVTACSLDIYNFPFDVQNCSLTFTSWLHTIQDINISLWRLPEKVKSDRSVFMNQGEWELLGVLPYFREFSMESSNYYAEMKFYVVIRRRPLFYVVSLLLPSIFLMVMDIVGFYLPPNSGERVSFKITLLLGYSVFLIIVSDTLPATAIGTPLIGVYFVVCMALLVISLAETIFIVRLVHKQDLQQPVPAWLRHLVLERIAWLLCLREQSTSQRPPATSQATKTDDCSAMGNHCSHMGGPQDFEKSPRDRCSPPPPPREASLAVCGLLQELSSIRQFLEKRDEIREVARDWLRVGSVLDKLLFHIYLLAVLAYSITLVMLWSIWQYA
# [1] = Study S.241.2.112: population pharmacokinetics (NONMEM) in IBS patients; format: in vivo, human; conditions: for predicted steady-state AUC(0-τ) / predicted steady-state Cmax: covariate population PK model, mean (SD); for Increase of apparent oral clearance per 1 mL/min creatinine clearance: population model; for half-life: both sexes
# Protocol: The pharmacokinetics and pharmacodynamics of cilansetron following multiple oral administration in non-constipated IBS patients have been examined in a population pharmacokinetic (NONMEM) analysis of a Phase II trial. The study was a double-blind, placebo-controlled, randomized, multi-center, parallel-group, dose ranging study to investigate the Efficacy and safety of four different doses of cilansetron (1 mg, 2 mg, 8 mg, and 16 mg TID) in patients with established IBS (non-constipated patients who suffered from IBS according to the Rome Criteria and were not bothered by constipation for >25% of their IBS episodes). The study was to be performed in approximately 50 centers. A sufficient number of patients were to be recruited to insure that at least 88 patients per treatment group were evaluable for efficacy and to get a total of 440 completers. […] There were interim assessments at the end of the 4th week (Visit 3; Day 29) and 8th week (Visit 4; Day 57) and a final assessment at the end of the 12th week (Visit 5; poststudy). Single blood samples for population pharmacokinetic analyses were drawn at Visits 3, 4, 5 or early termination, at 31 of the participating sites. With the exception of Visit 3, the timing of the blood draw in relation to the previous dose was not specified for any of the samples collected, but the time of sampling and the time of last dosing was recorded for each sample collected. For Visit 3, the blood sample had to be taken between 15 minutes and 2 hours of the morning or midday dose.
# Various covariates were screened during development of the population pharmacokinetic model, including age, height, weight, body surface area, body mass index, race, gender, smoking status, serum creatinine levels, serum creatinine clearance, total bilirubin levels, cilansetron dose, and concomitant medication usage. Some efficacy and safety parameters were also evaluated in this population analysis using correlation analyses. Efficacy parameters evaluated included overall relief of IBS symptoms (Responder or Non-Responder), intensity of abdominal pain, number of stools and stool consistency, symptoms of abdominal and rectal discomfort (straining, urgency, feeling of incomplete defecation, passage of mucus, bloating, and feeling of abdominal distension), and upper GI symptoms at Visit 5 (vomiting, heartburn, early satiety, postprandial fullness, sensation of prolonged digestion, and nausea). Safety parameters evaluated included the top ten most frequently observed adverse events (constipation, flatulence, nausea, abdominal pain, headache, dyspepsia, infection, gastrointestinal disorders, anorexia, and diarrhea).
# The population analysis included data from 160 patients (63 males and 97 females) with a median age of 45.5 years (range: 20-81 years), median weight of 78 kg (range: 47-121 kg), and median height of 170 cm (range: 147-196 cm). More than 90% of the patients were White and 18.8% of the patients were considered smokers. […] A total of 392 quantifiable concentrations for cilansetron, 393 quantifiable concentrations for (4S)-hydroxy cilansetron, and 397 quantifiable concentrations for (4R)-hydroxy cilansetron from 160 patients were included in the NONMEM datasets for population analyses.
# FIG. 54, FIG. 55, and FIG. 56 present mean steady-state plasma concentration-time profiles for cilansetron and its 4-hydroxy metabolites, and Table 2.7.2.3.29 and Table 2.7.2.3.30 present descriptive statistics for the estimated pharmacokinetic parameters of cilansetron and its 4-hydroxy metabolites from the final covariate population pharmacokinetic model. The cilansetron concentration data were best described by a one-compartment model with first-order input, an absorption lag time, and first-order elimination. A log-normal distribution was used to describe the variability of clearance, volume of distribution and absorption rate constant between patients. The residual error was best described by an exponential model. […]
# [2] = Study S.241.1.109: single and multiple dose pharmacokinetics 2 mg TID; format: in vivo, human; conditions: for Accumulation following TID dosing (mean increase): Day 7:Day 1, AUC(0-τ) and Cmax; for Time of peak concentration: after cilansetron dosing
# Protocol: In an open-label, randomized, parallel-group study in 36 healthy, male and female subjects (19-45 years), subjects received a 2 mg single dose of cilansetron on Day 1 and 2 mg TID on Days 2-7. The morning doses on Days 1 and 7 were administered immediately after a standard breakfast. Serial blood samples for the measurement of single-dose and steady-state pharmacokinetics of cilansetron and its main metabolites, (4R)-hydroxy cilansetron and (4S)-hydroxy cilansetron, were collected on Day 1 (single dose) up to 24 hours postdose and on Day 7 (multiple dose) up to 8 hours postdose.
# [3] = cilansetron 1 mg TID, IBS patients, Bayesian estimates, population PK model, arith. mean
# [4] = cilansetron 1 mg TID, IBS patients
# [5] = cilansetron 2 mg TID, IBS patients, Bayesian estimates, population PK model, arith. mean
# [6] = cilansetron 2 mg TID, IBS patients
# [7] = cilansetron 8 mg TID, IBS patients, Bayesian estimates, population PK model, arith. mean
# [8] = cilansetron 8 mg TID, IBS patients
# [9] = cilansetron 16 mg TID, IBS patients, Bayesian estimates, population PK model, arith. mean
# [10] = cilansetron 16 mg TID, IBS patients
# [11] = AUC(0-τ) Day 7 to AUC(0-inf) Day 1
# [12] = both sexes, human, in vivo, 2 mg, Cmax
compound,measurement,setting,value
Cc1nccn1CC1CCc2c(c3cccc4c3n2CC[C@H]4O)C1=O (stereo partly drawn) [(4R)-hydroxy cilansetron],pKi,human 5-HT3 receptor,8.5
same,CL/F,[1]; [3],234 L/h
same,T½,[1]; [3],9.55 h
same,predicted steady-state AUC(0-τ),[1]; [4],6.42 (1.40) ng · h/mL
same,predicted steady-state Cmax,[1]; [4],1.05 (0.19) ng/mL
same,CL/F,[1]; [5],232 L/h
same,T½,[1]; [5],9.56 h
same,predicted steady-state AUC(0-τ),[1]; [6],13.0 (2.64) ng · h/mL
same,predicted steady-state Cmax,[1]; [6],2.17 (0.37) ng/mL
same,CL/F,[1]; [7],229 L/h
same,T½,[1]; [7],9.79 h
same,predicted steady-state AUC(0-τ),[1]; [8],53.0 (10.1) ng · h/mL
same,predicted steady-state Cmax,[1]; [8],8.56 (1.70) ng/mL
same,CL/F,[1]; [9],232 L/h
same,T½,[1]; [9],9.80 h
same,predicted steady-state AUC(0-τ),[1]; [10],98.6 (18.8) ng · h/mL
same,predicted steady-state Cmax,[1]; [10],16.7 (3.0) ng/mL
same,Increase of apparent oral clearance per 1 mL/min creatinine clearance,[1],0.447 L/h
same,AUC(0-τ),"[2]; 2 mg TID, Day 7",12.9 (18) ng · h/mL
same,Cmax,"[2]; 2 mg TID, Day 7",2.66 (22) ng/mL
same,AUC(0-inf),"[2]; 2 mg single dose, Day 1",11.7 (18) ng · h/mL
same,AUC(0-τ),"[2]; 2 mg single dose, Day 1",8.43 (21) ng · h/mL
same,Cmax,"[2]; 2 mg single dose, Day 1",1.92 (27) ng/mL
same,T½,"[2]; 2 mg single dose, Day 1",3.89 (15) h
same,AUC accumulation ratio Day 7/Day 1,[2]; AUC(0-τ),147^d %
same,Linearity Ratio,[2]; [11],107%
same,Tmax,"[2]; Day 1, median (min, max)","2.00 (0.50, 4.00)^b h"
same,Accumulation following TID dosing (mean increase),[2],35-47%
same,Tmax,"[2]; Day 7, median (min, max)","2.00 (0.75, 4.00)^b h"
same,Time of peak concentration,[2],approximately 2 hours
same,half-life,[2]; approximate mean,approximately 4 hours
same,AUC(0-τ) (Day 7) to AUC(0-inf) (Day 1) mean ratio,"[2]; human, in vivo",1.07
same,Cmax accumulation ratio Day 7/Day 1,"[2]; human, in vivo",135^e %
Cc1nccn1CC1CCc2c(c3cccc4c3n2CC[C@@H]4O)C1=O (stereo partly drawn) [(4S)-hydroxy cilansetron],pKi,human 5-HT3 receptor,8.0
same,CL/F,[1]; [3],140 L/h
same,T½,[1]; [3],5.42 h
same,predicted steady-state AUC(0-τ),[1]; [4],3.85 (0.92) ng · h/mL
same,predicted steady-state Cmax,[1]; [4],0.546 (0.105) ng/mL
same,CL/F,[1]; [5],136 L/h
same,T½,[1]; [5],5.55 h
same,predicted steady-state AUC(0-τ),[1]; [6],7.68 (1.59) ng · h/mL
same,predicted steady-state Cmax,[1]; [6],1.10 (0.20) ng/mL
same,CL/F,[1]; [7],134 L/h
same,T½,[1]; [7],5.64 h
same,predicted steady-state AUC(0-τ),[1]; [8],31.6 (7.68) ng · h/mL
same,predicted steady-state Cmax,[1]; [8],4.46 (1.04) ng/mL
same,CL/F,[1]; [9],142 L/h
same,T½,[1]; [9],5.31 h
same,predicted steady-state AUC(0-τ),[1]; [10],63.2 (16.5) ng · h/mL
same,predicted steady-state Cmax,[1]; [10],9.03 (2.03) ng/mL
same,Increase of apparent oral clearance per 1 mL/min creatinine clearance,[1],0.883 L/h
same,AUC(0-τ),"[2]; 2 mg TID, Day 7",7.91 (19) ng · h/mL
same,Cmax,"[2]; 2 mg TID, Day 7",1.25 (18) ng/mL
same,AUC(0-inf),"[2]; 2 mg single dose, Day 1",7.42 (20) ng · h/mL
same,AUC(0-τ),"[2]; 2 mg single dose, Day 1",3.26 (19) ng · h/mL
same,Cmax,"[2]; 2 mg single dose, Day 1",0.605 (22) ng/mL
same,T½,"[2]; 2 mg single dose, Day 1",7.48 (26) h
same,AUC accumulation ratio Day 7/Day 1,[2]; AUC(0-τ),239^d %
same,Linearity Ratio,[2]; [11],108%
same,Tmax,"[2]; Day 1, median (min, max)","4.00 (1.50, 6.00)^b h"
same,Accumulation following TID dosing (mean increase),[2],105-139%
same,Tmax,"[2]; Day 7, median (min, max)","3.00 (1.75, 4.00)^b h"
same,Time of peak concentration,[2],3 to 4 h
same,half-life,[2]; approximate mean,~7.5 h
same,AUC(0-τ) (Day 7) to AUC(0-inf) (Day 1) mean ratio,"[2]; human, in vivo",1.08
same,Cmax accumulation ratio Day 7/Day 1,"[2]; human, in vivo",205^e %
same,Accumulation following TID dosing,[2]; in vivo,greater than 2 fold
"Cc1nccn1C[C@H]1CCc2c(c3cccc4c3n2CCC4)C1=O [Cilansetron, (R)-(−)-4,5,6,8,9,10-hexahydro-10-[(2-methyl-1H-imidazol-1-yl)methyl]-11H-pyrido-[3,2,1-jk]-carbazol-11-one]",pKi,human 5-HT3 receptor,9.4
same,half-life,"[1]; human, in vivo, 1 mg",4.76 h
same,half-life,"[1]; human, in vivo, 2 mg",4.3 h
same,half-life,"[1]; human, in vivo, 8 mg",4.5 h
same,half-life,"[1]; human, in vivo, 16 mg",4.5 h
same,Apparent oral clearance decrease with concomitant medications,"[1]; both, human, in vivo, po",38.6%
same,Apparent oral clearance increase in smokers,"[1]; both, human, in vivo, po",32.2%
same,Increase of mean apparent oral clearance in smokers,"[1]; both, human, in vivo, po",approximately 32%
same,CL/F,"[1]; human, in vivo, 1 mg",28.3 L/h
same,CL/F,"[1]; human, in vivo, 2 mg",34.1 L/h
same,CL/F,"[1]; human, in vivo, 8 mg",34.2 L/h
same,CL/F,"[1]; human, in vivo, 16 mg",37.3 L/h
same,Tmax,"[2]; both sexes, human, in vivo",1.75 h
same,Tmax at 7 day,"[2]; both sexes, human, in vivo",1.5 h
same,AUC(0-inf),"[2]; both sexes, human, in vivo, 2 mg",22.3 ng·h/mL
same,AUC,"[2]; both sexes, human, in vivo, 2 mg, AUC(0-τ)",21 ng·h/mL
same,Cmax,[2]; [12],6.63 ng/mL
same,Cmax at 7 day,[2]; [12],7.55 ng/mL
same,Cmax,"[2]; both sexes, human, in vivo, 2 mg, Plasma Cmax",6 to 7 ng/mL
same,half-life,"[2]; both sexes, human, in vivo, 2 mg, T½",1.6 h
same,half-life,"[2]; both sexes, human, in vivo, Half-life",1 to 2 h
same,AUC accumulation ratio Day 7/Day 1,"[2]; both, human, in vivo",105^d %
same,Cmax accumulation ratio Day 7/Day 1,"[2]; both, human, in vivo",110^e %
same,Linearity Ratio,"[2]; both, human, in vivo",99%
same,AUC(0-τ),"[2]; both, human, in vivo, 2 mg",23.5 (44) ng · h/mL
same,Intersubject % CV for AUC and Cmax,"[2]; both, human, in vivo, 2 mg",44-56%
same,T½,"[2]; both, human, in vivo, 2 mg",1.64 (18) h
